Results reported in article PMC5118709, “Identification of Polo-like kinase 1 interaction inhibitors using a novel cell-based assay” (Scientific Reports, 2016).

How the values were obtained:
PBD of Plk1 = PBD of Plk1 (Homo sapiens, UniProt P53350); experiment: fluorescence polarization assay PBD-Map peptide; type: binding
Experimental: The FP buffer was composed of 10 mM Tris pH 8.0, 50 mM NaCl, 1 mM EDTA, 20% glycerol and 0.1% NP-40. The peptide (final concentration 10 nM) was always added to the wells of non-binding, black, 384-well plates, 1 hour after the addition of the protein with the buffer (+/− treatment, 10% DMSO). […] EC65s were used to perform the competitive assays with the non-labeled peptides and with the inhibitors. FP Inhibition was calculated with the formula: 100 − [((mPsample − mPfree peptide)\(mPDMSO − mPfree peptide)) × 100]. […] (Map peptide), and corresponding non-labeled peptides are identical but without FITC in N-terminal. […] Inhibition curves were fitted with GraphPad (Prism software).

Plk1-Map interaction = Plk1-Map interaction (Homo sapiens, UniProt P53350); experiment: BRET Plk1-Map, stable HEK293T Plk1-Luc/GFP-Map cell line; type: cell-based; set-up: cDNAs for the human full length Plk1; expressed in transfected cells
From the text: To develop a cell-based assay for the identification of Plk1 interaction inhibitors, we used Bioluminescence Resonance Energy Transfer (BRET)[42][43]. The assay monitors the interaction in HEK293T cells between Plk1 and Map205, a protein that we previously identified as an interactor of Drosophila Polo (Plk1 ortholog) on its PBD[44]. Although no ortholog of Drosophila Map205 has been found in vertebrates, this protein robustly interacts with vertebrate Plk1. […] Importantly, crystallography with zebrafish Plk1 has recently shown that Map205 nevertheless docks in the canonical phosphopeptide binding site of the PBD, with the natural phospho-mimetic Glu314 residue (Fig. 1A)[45]. In our assay, human Plk1 and a fragment of Drosophila Map205 (Map205_254-416 = Map) are respectively fused to Renilla luciferase II (Luc) and GFP10 (GFP), giving rise to energy transfer when the proteins are in close proximity (Fig. 1B). […] All combinations of Plk1 and Map tagged with Luc and GFP were tested (Supplementary Fig. S1). The Plk1-Luc/GFP-Map combination was selected because it yielded the highest BRET dynamic window. We then generated clonal stable cell lines co-expressing these two fusion proteins. These cell lines behaved very similarly to each other in BRET, and we selected one line that gave a high and reproducible BRET signal, with a Z′ score of 0.78, indicative of a robust assay for the purpose of a chemical screen (Supplementary Fig. S1).
We used our cell-based assay to screen a library of 112 983 compounds available in-house at IRIC’s High-Throughput Screening (HTS) platform (see Materials & Methods). Compounds were tested on cells in 384-well plates at concentrations between 10 μM and 25 μM, depending on their concentration in the original stocks solutions. BRET readings were taken 2 hours after treatment. Results obtained show a tight, close to normal distribution centered around zero inhibition relative to DMSO-treated controls (Fig. 1D). Compounds inducing at least 30% BRET inhibition were selected. From these, auto-fluorescent compounds and those that induced more than 90% reduction in RLucII luminescence were removed, leaving 800 primary hits, that we then re-tested using the same assay. In parallel, we tested these compounds in a control BRET assay for an unrelated pair of interacting proteins (BRAF-CRAF[46]) to exclude false-positive compounds that could reduce the BRET signal by interfering with light or by modifying the activity of GFP or Luc.
For BRET on transiently transfected cells, 48 hours after the transfection, medium was removed, cells were washed twice with PBS, and then Tyrode solution (140 mM NaCl, 2.7 mM KCl, 12 mM NaHCO3, 5.6 mM D-glucose, 0.49 mM MgCl2, 0.37 mM NaH2PO4, 25 mM HEPES, pH 7.4, where 1 mM CaCl2 was freshly added) was added to the cells. Total fluorescence was first measured using a FlexStation II microplate reader (Molecular Devices), where the GFP10 was excited at 400 nm and read at 510 nm. Then, cells were treated for 5 minutes with 2.5 μM coelenterazine 400a (Gold Technology) before reading BRET2 using the Mithras LB940 microplate reader (Berthold Technologies). BRET2 signal corresponds to the light emitted by the GFP10 acceptor constructs (515 nm ± 20 nm) divided by the light emitted by the RlucII donor constructs (400 nm ± 70 nm). Net BRET2 was calculated by subtracting the background BRET ratio of the RLucII plasmid alone from the BRET ratio obtained by the two BRET partners. The Net BRET2 was plotted according to the GFP10/RLucII ratio, which was obtained by dividing the total fluorescence by the RLucII emission.
For the high throughput chemical screen, cells were amplified and frozen as multiple 1 ml aliquots containing 25 millions of stable HEK293T Plk1-Luc/GFP-Map cells to ensure that cells at the same passage number are used during the screen. […] Five days later, cells were counted and re-suspended in Tyrode solution. […]

Chain of Plk1-Map interaction (P53350 whole entry): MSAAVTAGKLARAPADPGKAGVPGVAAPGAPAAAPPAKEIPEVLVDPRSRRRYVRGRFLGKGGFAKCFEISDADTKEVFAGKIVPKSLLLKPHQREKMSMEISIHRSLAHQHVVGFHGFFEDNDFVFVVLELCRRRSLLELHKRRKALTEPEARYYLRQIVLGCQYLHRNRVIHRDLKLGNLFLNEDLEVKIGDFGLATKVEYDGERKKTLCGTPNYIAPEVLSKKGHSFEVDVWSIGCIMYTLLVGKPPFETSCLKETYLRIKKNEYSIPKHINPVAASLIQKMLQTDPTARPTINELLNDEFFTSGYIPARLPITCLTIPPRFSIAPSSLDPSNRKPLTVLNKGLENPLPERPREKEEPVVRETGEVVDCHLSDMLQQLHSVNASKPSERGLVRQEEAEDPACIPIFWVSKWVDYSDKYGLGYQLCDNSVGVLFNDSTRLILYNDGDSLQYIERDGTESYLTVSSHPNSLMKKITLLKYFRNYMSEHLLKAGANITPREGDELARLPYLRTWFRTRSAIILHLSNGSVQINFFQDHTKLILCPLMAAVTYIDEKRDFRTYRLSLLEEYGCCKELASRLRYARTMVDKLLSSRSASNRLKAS
Chain of PBD of Plk1 (P53350 367-603 limits assumed): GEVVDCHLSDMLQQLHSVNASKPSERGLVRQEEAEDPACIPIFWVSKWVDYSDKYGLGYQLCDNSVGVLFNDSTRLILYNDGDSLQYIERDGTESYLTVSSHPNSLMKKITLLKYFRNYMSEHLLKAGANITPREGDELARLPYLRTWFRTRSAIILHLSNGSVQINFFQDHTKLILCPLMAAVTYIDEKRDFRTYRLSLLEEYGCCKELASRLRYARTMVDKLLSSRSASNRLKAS

With `Cc1cc(C(F)(F)F)cc(S(=O)(=O)CCOC(=O)c2cccc(Cl)c2)n1` [Cpd 16, 2-((6-methyl-4-(trifluoromethyl)pyridin-2-yl)sulfonyl)ethyl 3-chlorobenzoate] the “disruption of the PBD-Map interaction in FP” value (PBD of Plk1) was “disrupted the PBD-Map interaction”, the “Primary screen Plk1-Map (stable) % Inihibition” value (Plk1-Map interaction; 10-25 μM, 2 h) was 67.34% and the “Primary screen Plk1-Map (stable) % Quench RLuc” value (Plk1-Map interaction; 10-25 μM, 2 h) was 86.24%. For the same compound, the “Confirmation Plk1-Map (stable) % Inihibition” value (Plk1-Map interaction; confirmation screen) was 30.79% and the “Confirmation Plk1-Map (stable) % Quench RLuc” value (Plk1-Map interaction; confirmation screen) was 81.37%.
